For data set [1], the target named is T1, σ2 receptor (Rattus norvegicus, UniProt Q5U3Y7).
T1 construct: The thawed rat liver membrane preparation; tissue Harlan-Winkelmann, Borchen, Germany; host or cells: rat liver membrane preparation
T1 sequence (Q5U3Y7 1-176): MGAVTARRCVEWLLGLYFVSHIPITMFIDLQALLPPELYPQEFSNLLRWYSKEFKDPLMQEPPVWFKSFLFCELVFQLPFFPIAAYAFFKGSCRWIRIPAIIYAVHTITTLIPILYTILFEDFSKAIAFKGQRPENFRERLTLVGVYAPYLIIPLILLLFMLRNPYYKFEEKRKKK
The experiment in a line: σ2 receptor radioligand binding assay ([3H]DTG with excess (+)-pentazocine, rat liver membranes). To be noted: for inhibition at 1 µM: test compound concentration 1 μM; for Ki: read-out: σ2 affinity K i±SEM (n=3), rat liver membranes, [3H]DTG + (+)-pentazocine.

Data set [2] has as its target T2, σ1 receptor (Cavia porcellus, UniProt Q60492).
T2 construct: The thawed membrane preparation of guinea pig brain cortex; tissue Harlan-Winkelmann, Borchen, Germany; host or cells: guinea pig brain (cortex) membrane homogenate
In words: σ1 receptor radioligand binding assay ([3H]-(+)-pentazocine, guinea pig brain homogenate). To be noted: for Ki: guinea pig brain, [3H]-(+)-pentazocine, piperidines tested as cis/trans mixtures; for σ1 : σ2 selectivity: Ki(σ2)/Ki(σ1).

In data set [3] the test system is androgen negative human prostate cancer cells DU145. The experiment in a line: DU145 cell growth inhibition, sulforhodamine B staining, 72 h. The format is cell-based. To be noted: 72 h incubation, n=3, read-out: cytotoxicity (DU145) IC 50. The procedure:
In the assay, DU145 tumor cells were incubated in 96‐well plates for 24 h. Different concentrations of the test compounds were added and after incubation for additional 72 h, the amount of living cells was recorded by staining with Sulforhodamine B.[62] In Table 3 the activity of the prototypical σ1 antagonists NE‐100 and S1RA is included.
6. Growth inhibition of DU145 tumor cells
DU145 cells were purchased from ATCC and maintained in adherent conditions in RPMI 1640 medium (21875-034, Gibco®) supplemented with 2 % (S)-glutamine, 10 % fetal […]
Gibco®). For the proliferation assays, DU145 cells were seeded at a density of 2 x 10^3 cells/well in 96-well tissue culture plates. 24 h later, the cells were treated with the […]
Then, the cells were fixed with 10 % (w/v) trichloroacetic acid and stained with sulforhodamine B for 30 min. The excess of the dye was removed by washing repeatedly with 1 % (v/v) acetic acid and the protein-bound dye was solubilized with Tris base solution for optical density (OD) measurement at 510 nm with a microplate reader. Cell proliferation and viability were expressed as percentages relative to those of DMSO treated cells. The data represent the results from three independent experiments. Statistical analysis was done using T-test and Anova. Figure […]
and two reference σ1 receptor antagonists.
For orientation: The SRB assay estimates cell density from bound dye.

Data set [4] has as its target σ1 receptor. To be noted: read-out: σ1 affinity K i±SEM, cited from earlier work.
Data set [5] is described as follows: logD7.4 by micro shake flask method (n-octanol / MOPS buffer pH 7.4, MS). The format is physicochemical. To be noted: read-out: logD7.4 (exp., n=3). On the procedure: However, the penalty for increased hydrolytic stability and σ1 receptor affinity of tetrahydropyrans 2 and cyclohexanes 3 is an increased molecular lipophilicity. In Figure 1 the calculated clogP values of the σ1 ligands 1–3 and one designed piperidine 4 a are summarized. In order to confirm the predicted clogP values, the logD7.4 values of the σ1 ligands 1–4 a were also determined experimentally using the micro shake flask method.[39, 40]
In order to argue with reliable lipophilicity values, the logD7.4 values of key compounds were determined experimentally following our micro‐shake‐flask protocol.[39, 40] According to this method, each compound of interest was distributed between an n‐octanol layer and an aqueous MOPS buffer pH 7.4. Subsequently, the amount of compound in the buffer layer was determined by mass spectrometry.

The test system of data set [6] is human non-small cell lung cancer cell line A427. The experiment in a line: A427 tumor cell proliferation (confluence) assay, IncuCyte S3 live cell imaging.
Procedure: In particular the confluence and IC 50 values were determined.
Live Cell imaging using the IncuCyte® S3 Live Cell Analysis System
The measurement of the cell confluence and the determination of the IC50 values were
performed with the IncuCyte® S3 Live Cell Analysis System (Essen BioScience, Ltd.,
Royston, Hertfordshire, UK)
5.4. Preparation of 96-well plates
For the preparation of the 96-well plates for the Live Cell Imager, A427 cells from the flask
were detached and centrifuged. The pellet was resuspended in 20 mL of the medium
using the vortexer. 1 mL was used to determine the number of cells and the volume
required for 8,000-12,000 cells was calculated. This volume was then added to each well
Switzerland) and the well was filled up to a total volume of 150 µL with medium.
At a confluence of 30-40 % the test compounds were added. Dilutions of concentrations
of 200, 100, 40, 20, 10 and 4 µM were prepared in medium with 2 % DMSO. 50 µL of
each dilution were added to the wells, resulting in a final assay concentration of 50, 25,
10, 5, 2.5 and 1 µM, respectively. Each concentration was measured in triplicates on each
plate and on three different days.
5.5. Measurement of cell confluence
The cell confluence was measured using the IncuCyte® S3. For the scanning with the
at a 10-fold magnification. Four pictures were taken from each well every 2 h until the
growth curve of the cells reached a plateau (approx. 5 d). The mask for the analysis of
adjustment size of -1 pixel and an area filter of minimum 200 µm2. After the analysis, a
graph showing the development of the confluence over time was produced.
5.6. Competitive confluence assay
The plates were prepared as described above with the exception that the cells were grown
in 100 µL instead of 150 µL of medium. After the cell confluence reached 30-40 %, the
(final concentration: 10 µM).
The target of data set [7] is T2, σ1 receptor. As to conditions: cited from earlier work.
Data set [8] has as its target T1, σ2 receptor. As to conditions: lead compounds 1–3; read-out: σ2 affinity K i±SEM; cited from earlier work.
For data set [9], the system named is σ1 receptor. The arrangement: method as in PMID 21444132, PMID 21598296. To be noted: mouse capsaicin assay; cited from earlier work.
The next data set in a line: water solubility. The format is physicochemical. To be noted: at higher concentrations.
Where [10] appears, read: read-out: σ1 affinity K i±SEM (n=3).
Setting [11] is: lead compounds 1–3 (enantiomers), read-out: σ1 affinity K i±SEM.

Where two headings read alike, the source gives them in different places. Some results are limits rather than exact numbers.

These results are taken from paper PMC9303367, “Synthesis of Aminoethyl‐Substituted Piperidine Derivatives as σ1 Receptor Ligands with Antiproliferative Properties” (Chemmedchem, 2022).

T2 sequence (Q60492 whole entry): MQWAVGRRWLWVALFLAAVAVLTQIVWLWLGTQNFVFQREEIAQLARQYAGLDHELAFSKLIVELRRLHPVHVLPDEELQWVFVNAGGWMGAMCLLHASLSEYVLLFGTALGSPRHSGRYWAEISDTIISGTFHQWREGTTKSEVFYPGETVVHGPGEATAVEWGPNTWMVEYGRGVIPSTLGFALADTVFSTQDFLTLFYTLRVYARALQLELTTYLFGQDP

On to `CCN1CC[C@H](CCNCCCc2ccccc2)C[C@@H]1c1ccccc1` [19b, cis‐N‐(2‐(1‐Ethyl‐2‐phenylpiperidin‐4‐yl)ethyl)‐3‐phenylpropan‐1‐amine], for which the “preference for the σ2 receptor over the σ1 receptor” value on σ2 receptor [1] turned out to be 7 fold. The Ki at σ1 receptor [2] (σ1 affinity K i±SEM (n=3)) stood at 2400 nM.

As for `Cc1cc(OCCN2CCOCC2)nn1-c1ccc2ccccc2c1` [S1RA, reference compound], the IC50 in data set [3] is over 10000 nM. Moreover, at σ1 receptor [4] (S1RA), the Ki was 17 ± 7 nM.

As for `CN1CC[C@H](CCNCCCc2ccccc2)C[C@@H]1c1ccccc1` [19a, cis‐N‐(2‐(1‐Methyl‐2‐phenylpiperidin‐4‐yl)‐ethyl)‐3‐ phenylpropan‐1‐amine], testing at 1 µM at σ2 receptor [1] gave an inhibition of 0%. For the same compound, the “σ1 : σ2 selectivity” value on σ1 receptor [2] is listed as over 20. For the same compound, the Ki at σ1 receptor [2] (σ1 affinity K i±SEM (n=3)) was 50 ± 17 nM.

With `CN1CCC(CCNCc2ccccc2)CC1c1ccccc1` (stereo not drawn) [18a, cis‐ and trans‐N‐Benzyl‐2‐(1‐methyl‐2‐phenyl‐piperidin‐ 4‐yl)ethan‐1‐amine], on σ1 receptor [2], the “σ1 : σ2 selectivity” value is 61. The Ki at σ1 receptor [2] (setting [10]) was 7.9 ± 0.2 nM. Besides, in data set [5], the logD worked out at 0.52 ± 0.01.

With `CC(C)=CCN1CC[C@]2(C)c3cc(O)ccc3C[C@H]1[C@H]2C` [(+)‐pentazocine, reference compound], the “Inhibition of cell confluency IC50 ± SD” value in [6] (A427 cells, last time point (approx. 5 d), n = 3) is given as “no effect”.

Turning to `Cc1ccc(S(=O)(=O)N2CCC(CCNCc3ccccc3)CC2c2ccccc2)cc1` (stereo not drawn) [13a, cis‐ and trans‐N‐Benzyl‐2‐(2‐phenyl‐1‐tosyl‐piperidin‐ 4‐yl)ethan‐1‐amine], the melting point amounted to 79 °C. Moreover, the “σ1 : σ2 selectivity” value at σ1 receptor [2] is on record as 13. Also, the Ki on σ1 receptor [2] (σ1 affinity K i±SEM (n=3)) is 57 ± 21 nM.

The compound `c1ccc(CCCNCCC2CCNC(c3ccccc3)C2)cc1` (stereo not drawn) [4b, cis‐ and trans‐N‐(3‐Phenylpropyl)‐2‐(2‐phenyl‐piperidin‐ 4‐yl)ethan‐1‐amine] yielded an inhibition at 1 µM on σ2 receptor [1] of 0%. In addition, the Ki on σ1 receptor [2] (σ1 affinity K i±SEM (n=3)) stood at 849 nM.

Take `CCN1CCC(CCNCc2ccccc2)CC1c1ccccc1` (stereo not drawn) [18b, cis‐ and trans‐N‐Benzyl‐2‐(1‐ethyl‐2‐phenyl‐piperidin‐ 4‐yl)ethan‐1‐amine]: the “σ1 : σ2 selectivity” value at σ1 receptor [2] came out at 1. In addition, the Ki on σ1 receptor [2] (σ1 affinity K i±SEM (n=3)) amounted to 129 ± 38 nM.

Regarding `CCCN(CCC)CCc1ccc(OC)c(OCCc2ccccc2)c1` [NE‐100, reference compound], the IC50 in data set [3] was over 10000 nM. Moreover, the Ki on σ1 receptor [4] (NE-100) was 1.3 nM.

As to `CN1CCC(CCNCC2CCCCC2)CC1c1ccccc1` (stereo not drawn) [20a, cis‐ and trans‐N‐(Cyclohexylmethyl)‐2‐(1‐methyl‐ 2‐phenylpiperidin‐4‐yl)ethan‐1‐amine], the “σ1 : σ2 selectivity” value at σ1 receptor [2] stood at 18. Further, on σ1 receptor [2] (σ1 affinity K i±SEM (n=3)), the Ki is 16 ± 5 nM. For the same compound, in data set [3] (Homo sapiens, DU-145), the IC50 came out at 4900 nM.

Consider `c1ccc(CNCCC2CCCC(c3ccccc3)C2)cc1` (stereo not drawn) [compound 3], for which the values for the Ki at σ1 receptor [7] (setting [11]) and on σ2 receptor [8] were 0.61 ± 0.1 nM and 49 ± 31 nM, respectively. Also, at σ1 receptor [7] (lead compounds 1–3), the “σ1 : σ2 selectivity” value is 80. The logD in [5] came out at 3.25 ± 0.02.

Turning to `CN(CCC1CCN(C)C(c2ccccc2)C1)Cc1ccccc1` (stereo not drawn) [21a, cis‐ and trans‐N‐Benzyl‐N‐methyl‐2‐(1‐methyl‐ 2‐phenylpiperidin‐4‐yl)ethan‐1‐amine], the Ki at σ2 receptor [1] was 77 ± 5 nM; on σ1 receptor [2] (setting [10]) it was 19 ± 9 nM; on σ1 receptor [2] (σ1 affinity K i±SEM (n=3)), under 27 nM. For the same compound, the “σ1 : σ2 selectivity” value on σ1 receptor [2] was determined as 4. Besides, the IC50 in data set [3] (Homo sapiens, DU-145) was found to be 5500 nM.

Consider `c1ccc(CNCCC2CCOC(c3ccccc3)O2)cc1` (stereo not drawn) [compound 1], for which the “antiallodynic activity in vivo” value in the data set on σ1 receptor [9] is reported as “high antiallodynic activity”. The Ki at σ1 receptor [7] (1,3-dioxane 1, read-out: σ1 affinity K i) was 19 nM; at σ1 receptor [7] (setting [11]), 6 ± 1 nM; at σ2 receptor [8] it was 4200 nM. Besides, the logD in data set [5] was 1.36 ± 0.02.

As for `c1ccc(CNCCC2CCCC(c3ccccc3)O2)cc1` (stereo not drawn) [compound 2], the Ki is 1.6 ± 0.2 nM on σ1 receptor [7] (setting [11]) and 378 nM on σ2 receptor [8]. Also, the logD in data set [5] is 2.52 ± 0.05.

Regarding `Cc1ccc(S(=O)(=O)N2CCC(CCNCCCc3ccccc3)CC2c2ccccc2)cc1` (stereo not drawn) [13b, cis‐ and trans‐N‐(3‐Phenylpropyl)‐2‐(2‐phenyl‐1‐tosylpiperidin‐4‐yl)ethan‐1‐amine], the “σ1 : σ2 selectivity” value on σ1 receptor [2] came to 2. Further, the Ki at σ1 receptor [2] (σ1 affinity K i±SEM (n=3)) stood at 291 ± 139 nM.

As to `CN1CCC(CCN2CCN(c3ccccc3)CC2)CC1c1ccccc1` (stereo not drawn) [22a, cis‐ and trans‐1‐(2‐(1‐Methyl‐2‐phenyl‐ piperidin‐4‐yl)ethyl)‐4‐phenylpiperazine], the Ki on σ2 receptor [1] was 1600 nM; at σ1 receptor [2] (setting [10]) it was 27 ± 11 nM; at σ1 receptor [2] (σ1 affinity K i±SEM (n=3)), under 27 nM. In addition, on σ1 receptor [2], the “σ1 : σ2 selectivity” value amounted to 59. For the same compound, in [3] (Homo sapiens, DU-145), the IC50 came out at 4000 nM.

As for `c1ccc(CNCCC2CCNC(c3ccccc3)C2)cc1` (stereo not drawn) [4a, cis‐ and trans‐N‐Benzyl‐2‐(2‐phenylpiperidin‐4‐yl)ethan‐1‐amine], the Ki on σ2 receptor [1] is 372 nM; on σ1 receptor [2] (setting [10]), 165 nM. The water solubility entry in the data set “water solubility” is on record as “good water solubility”. Further, the IC50 in data set [6] (Homo sapiens, A-427, 120 h, read-out: Inhibition of cell confluency IC50 ± SD, A427 cells, last time point (approx. 5 d), n = 3) is 18000 nM; in data set [6] (read-out: Inhibition of cell confluency IC50 ± SD, A427 cells, last time point (approx. 5 d), n = 3), 17000 nM. Moreover, in data set [6] (effect reduced by σ1 agonist (+)-pentazocine (10 μM)), the “functional behaviour at σ1 receptor in A427 tumor cell proliferation assay” value is “σ1 receptor antagonist”. In [5], the logD was -0.79 ± 0.07.

One may read the inhibition as the drop in the measured response relative to a control, in per cent. The low end stands for a weak effect, the high end for a strong effect. The term melting point denotes the temperature, or range, at which the solid turns liquid.
